Organism: Rattus norvegicus
Assay: DrugMatrix - Regimen: Daily Repeat
Assay type: toxicity, organism-based, Sprague-Dawley
Parameters: regimen Daily Repeat, gender Male, age 6-8 weeks
Details: in vivo, po, route oral GAVAGE, vehicle 100 % WATER; for ABSOLUTE BASOPHIL / ABSOLUTE EOSINOPHIL / ABSOLUTE LYMPHOCYTE / ABSOLUTE MONOCYTE / ABSOLUTE SEGMENTED NEUTROPHIL / BASOPHIL / EOSINOPHIL / ERYTHROCYTE COUNT / HEMATOCRIT / HEMOGLOBIN / LEUKOCYTE COUNT / LYMPHOCYTE / MEAN CORPUSCULAR HEMOGLOBIN / MEAN CORPUSCULAR HEMOGLOBIN CONCENTRATION / MEAN CORPUSCULAR VOLUME / MONOCYTE / NEUTROPHIL / NUCLEATED RED BLOOD CELLS / PLATELET COUNT: tissue Blood; for ALANINE AMINOTRANSFERASE / ALBUMIN / ALKALINE PHOSPHATASE / ASPARTATE AMINOTRANSFERASE / BLOOD UREA NITROGEN / CARBON DIOXIDE / CHLORIDE / CHOLESTEROL / CREATINE PHOSPHOKINASE / CREATININE / GLUCOSE / LIPASE / PHOSPHORUS / POTASSIUM / SODIUM / TOTAL BILIRUBIN / TOTAL PROTEIN / URIC ACID: tissue Plasma
[1] = 0 mg/kg, 72 h, dose level Control, time 3 day
[2] = 0 mg/kg, 120 h, dose level Control, time 5 day
[3] = 175 mg/kg, 72 h, dose level High, time 3 day

CC(C)NCC(O)COc1cccc2ccccc12 (stereo unspecified) [PROPRANOLOL]
ABSOLUTE BASOPHIL [1]: 0 CELLS/uL | ABSOLUTE EOSINOPHIL [1]: 46 CELLS/uL | ABSOLUTE LYMPHOCYTE [1]: 10225.67 CELLS/uL | ABSOLUTE MONOCYTE [1]: 319.33 CELLS/uL | ABSOLUTE SEGMENTED NEUTROPHIL [1]: 1242.33 CELLS/uL | BASOPHIL [1]: 0% | EOSINOPHIL [1]: 0.33% | ERYTHROCYTE COUNT [1]: 5.17 x10E6/uL | HEMATOCRIT [1]: 33.43% | HEMOGLOBIN [1]: 12.55 G/DL | LEUKOCYTE COUNT [1]: 11.83 x10E3/uL | LYMPHOCYTE [1]: 86.5% | MEAN CORPUSCULAR HEMOGLOBIN [1]: 24.35 pg | MEAN CORPUSCULAR HEMOGLOBIN CONCENTRATION [1]: 37.57 G/DL | MEAN CORPUSCULAR VOLUME [1]: 64.8 fL | MONOCYTE [1]: 2.67% | NEUTROPHIL [1]: 10.5% | NUCLEATED RED BLOOD CELLS [1]: 0.17 /100WBC | PLATELET COUNT [1]: 1026.17 x10E3/uL | ALANINE AMINOTRANSFERASE [1]: 52.67 u/L | ALBUMIN [1]: 4.17 G/DL | ALKALINE PHOSPHATASE [1]: 331 u/L | ASPARTATE AMINOTRANSFERASE [1]: 92.33 u/L | BLOOD UREA NITROGEN [1]: 15.33 mg/dL | CARBON DIOXIDE [1]: 26.17 mmol/L | CHLORIDE [1]: 103.17 MEQ/L | CHOLESTEROL [1]: 73.67 mg/dL | CREATINE PHOSPHOKINASE [1]: 472.83 u/L | CREATININE [1]: 0.29 mg/dL | GLUCOSE [1]: 178.5 mg/dL | LIPASE [1]: 10.67 u/L | PHOSPHORUS [1]: 12.45 mg/dL | POTASSIUM [1]: 6.35 MEQ/L | SODIUM [1]: 144.27 MEQ/L | TOTAL BILIRUBIN [1]: 0.13 mg/dL | TOTAL PROTEIN [1]: 5.77 G/DL | URIC ACID [1]: 2.08 mg/dL | ABSOLUTE BASOPHIL [2]: 0 CELLS/uL | ABSOLUTE EOSINOPHIL [2]: 23.5 CELLS/uL | ABSOLUTE LYMPHOCYTE [2]: 12797.33 CELLS/uL | ABSOLUTE MONOCYTE [2]: 465.5 CELLS/uL | ABSOLUTE SEGMENTED NEUTROPHIL [2]: 1313.67 CELLS/uL | BASOPHIL [2]: 0% | EOSINOPHIL [2]: 0.17% | ERYTHROCYTE COUNT [2]: 5.76 x10E6/uL | HEMATOCRIT [2]: 36.72% | HEMOGLOBIN [2]: 13.72 G/DL | LEUKOCYTE COUNT [2]: 14.6 x10E3/uL | LYMPHOCYTE [2]: 87.5% | MEAN CORPUSCULAR HEMOGLOBIN [2]: 23.8 pg | MEAN CORPUSCULAR HEMOGLOBIN CONCENTRATION [2]: 37.35 G/DL | MEAN CORPUSCULAR VOLUME [2]: 63.72 fL | MONOCYTE [2]: 3.17% | NEUTROPHIL [2]: 9.17% | NUCLEATED RED BLOOD CELLS [2]: 0.33 /100WBC | PLATELET COUNT [2]: 1270.67 x10E3/uL | ALANINE AMINOTRANSFERASE [2]: 50.5 u/L | ALBUMIN [2]: 4.32 G/DL | ALKALINE PHOSPHATASE [2]: 339.67 u/L | ASPARTATE AMINOTRANSFERASE [2]: 88 u/L | BLOOD UREA NITROGEN [2]: 17 mg/dL | CARBON DIOXIDE [2]: 25 mmol/L | CHLORIDE [2]: 103.83 MEQ/L | CHOLESTEROL [2]: 71.33 mg/dL | CREATINE PHOSPHOKINASE [2]: 281.83 u/L | CREATININE [2]: 0.26 mg/dL | GLUCOSE [2]: 161.67 mg/dL | LIPASE [2]: 10.17 u/L | PHOSPHORUS [2]: 11.72 mg/dL | POTASSIUM [2]: 6.76 MEQ/L | SODIUM [2]: 145.17 MEQ/L | TOTAL BILIRUBIN [2]: 0.2 mg/dL | TOTAL PROTEIN [2]: 6.15 G/DL | URIC ACID [2]: 2 mg/dL | ABSOLUTE BASOPHIL [3]: 0 CELLS/uL | ABSOLUTE EOSINOPHIL [3]: 124 CELLS/uL | ABSOLUTE LYMPHOCYTE [3]: 11451.33 CELLS/uL | ABSOLUTE MONOCYTE [3]: 0 CELLS/uL | ABSOLUTE SEGMENTED NEUTROPHIL [3]: 824.67 CELLS/uL | BASOPHIL [3]: 0% | EOSINOPHIL [3]: 1% | ERYTHROCYTE COUNT [3]: 5.24 x10E6/uL | HEMATOCRIT [3]: 34.07% | HEMOGLOBIN [3]: 12.73 G/DL | LEUKOCYTE COUNT [3]: 12.4 x10E3/uL | LYMPHOCYTE [3]: 92% | MEAN CORPUSCULAR HEMOGLOBIN [3]: 24.3 pg | MEAN CORPUSCULAR HEMOGLOBIN CONCENTRATION [3]: 37.37 G/DL | MEAN CORPUSCULAR VOLUME [3]: 65.07 fL | MONOCYTE [3]: 0% | NEUTROPHIL [3]: 7% | NUCLEATED RED BLOOD CELLS [3]: 0 /100WBC | PLATELET COUNT [3]: 1403.33 x10E3/uL | ALANINE AMINOTRANSFERASE [3]: 49 u/L | ALBUMIN [3]: 4.2 G/DL | ALKALINE PHOSPHATASE [3]: 411 u/L | ASPARTATE AMINOTRANSFERASE [3]: 73.33 u/L | BLOOD UREA NITROGEN [3]: 14.33 mg/dL | CARBON DIOXIDE [3]: 24 mmol/L | CHLORIDE [3]: 103 MEQ/L | CHOLESTEROL [3]: 75.33 mg/dL | CREATINE PHOSPHOKINASE [3]: 253.33 u/L | CREATININE [3]: 0.21 mg/dL | GLUCOSE [3]: 152.33 mg/dL | LIPASE [3]: 9 u/L | PHOSPHORUS [3]: 13.13 mg/dL | POTASSIUM [3]: 6.83 MEQ/L | SODIUM [3]: 143.67 MEQ/L | TOTAL BILIRUBIN [3]: 0.13 mg/dL | TOTAL PROTEIN [3]: 5.77 G/DL | URIC ACID [3]: 2.97 mg/dL
